This note sets out measurements from patent US8129396B2, “2-[1H-benzimidazol-2(3H)-ylidene]-2-(pyrimidin-2-yl)acetamides and 2-[benzothiazol-2(3H)-ylidene]-2-(pyrimidin-2-yl)acetamides as kinase inhibitors” (Telik, Inc., priority 2008, dated 2012).

Experiment [1] relates to HL60 (human promyelocytic leukemia) cells. Put plainly: HL60 cytotoxicity assay (CellTiter-Glo). Format: cell-based. To be noted: HL-60, 72 h, cytotoxicity, three days culture, read-out: HL60 IC50. From the text: The cell lines HL60 (human promyelocytic leukemia) and HCT116 (human colon carcinoma) were obtained from the American Type Culture Collection, Manassas, Va., U.S.A., and HUVEC-2 (human umbilical vein endothelial cells) from BD Biosciences, Bedford, Mass., U.S.A. Aurora A kinase was obtained from Upstate Biotech, Billerica, Mass., U.S.A.; Aurora B kinase from BPS Bioscience, San Diego, Calif., U.S.A.; and VEGFR2 kinase from Cell Signaling Technology, Danvers, Mass., U.S.A. The IMAP FP Screening Express kit was obtained from Molecular Devices, Sunnyvale, Calif., U.S.A.; the CellTiter-Glo assay kit from Promega Corporation, Madison, Wis., U.S.A.; and the Cellular DNA Cytometric Analysis Reagent Kit and BrdU labeling and detection kit from Roche Diagnostics Corporation, Indianapolis, Ind., U.S.A. All products were used in accordance with manufacturer's directions. Kinase inhibition assays and the histone phosphorylation (p-H3) assay were conducted in duplicate, and the cytotoxicity and HUVEC proliferation assays were conducted in triplicate, in each case with solvent control.
Log-phase cells were trypsinized, collected by centrifugation, and resuspended in a small volume of fresh medium, and the density of viable cells was determined following Trypan Blue staining. Cells were diluted in fresh media (1×10^4 cells/mL for HL60 and 4×10^4 cells/mL for HCT116 cells), the test compounds (concentrations between 0.1 μM and 200 μM, dissolved in DMSO, 50 μL) added immediately after dilution to achieve a final DMSO concentration of 0.5%, then the suspensions added at 150 μL/well to 96-well plates, and incubated overnight to allow attachment in the case of adherent cells. The cells were cultured for three days (about three doubling times). The cells were then collected by centrifugation, and 100 μL of the culture supernatant was replaced by the CellTiter-Glo reagent. After incubation for 15 minutes at room temperature, the plate was read with a luminometer.

The test system of experiment [2] is HCT116 (human colon carcinoma) cells. Put plainly: HCT116 cytotoxicity assay (CellTiter-Glo). To be noted: HCT-116, 72 h, cytotoxicity, three days culture, read-out: HCT116 IC50. Format: cell-based.
The next experiment addresses T1, Aurora B kinase (Homo sapiens, UniProt Q96GD4).
T1 construct: purchased BPS Bioscience
Put plainly: Aurora B kinase assay (IMAP fluorescence polarization). Format: biochemical. Particulars: 10 μM ATP; rounded to 1 significant figure; read-out: Aur-B IC50. Put shortly: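 Reaction started with 100 nM fluorescein-labelled PKAtide and 10 μM ATP, run 45 min at room temperature, then stopped with IMAP binding reagent (1:400). After 30 min shaking at room temperature, fluorescence polarization read; run in duplicate with solvent control.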

A further experiment has as its target T2, VEGFR2 kinase (Homo sapiens, UniProt P35968).
T2 construct: purchased Cell Signaling Technology
Put plainly: VEGFR2 kinase assay. Format: biochemical. To be noted: 6 μM ATP, 1 mM MnCl2; rounded to 1 significant figure. The essentials: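 VEGFR2 phosphorylates CSKtide with 6 μM ATP and 1 mM MnCl2 for 1 hr, otherwise following the Aurora A kinase protocol. Detection by IMAP fluorescence polarization, binding reagent diluted 1:1200 in 1:1 binding buffer A/B. Run in duplicate with solvent control.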

Another experiment relates to p-H3 in HCT116 cells. Nature of the experiment: Histone phosphorylation (p-H3) assay. Format: cell-based. Particulars: Homo sapiens, HCT-116; HCT116 cells, 4 hr incubation; read-out: p-H3 IC50. The essentials:
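HCT116 cells (2.5×10^4/well, attached overnight) treated 4 h with 8-point 3-fold compound dilutions at 0.5% DMSO. Lysates dot-blotted onto nitrocellulose and probed for p-H3 with β-actin on the same membrane, fluorescent secondary antibodies, Odyssey scan; duplicate wells.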

A further experiment concerns the target T3, Aurora A kinase (Homo sapiens, UniProt O14965).
T3 construct: purchased Upstate Biotech
T3 sequence (O14965 1-403): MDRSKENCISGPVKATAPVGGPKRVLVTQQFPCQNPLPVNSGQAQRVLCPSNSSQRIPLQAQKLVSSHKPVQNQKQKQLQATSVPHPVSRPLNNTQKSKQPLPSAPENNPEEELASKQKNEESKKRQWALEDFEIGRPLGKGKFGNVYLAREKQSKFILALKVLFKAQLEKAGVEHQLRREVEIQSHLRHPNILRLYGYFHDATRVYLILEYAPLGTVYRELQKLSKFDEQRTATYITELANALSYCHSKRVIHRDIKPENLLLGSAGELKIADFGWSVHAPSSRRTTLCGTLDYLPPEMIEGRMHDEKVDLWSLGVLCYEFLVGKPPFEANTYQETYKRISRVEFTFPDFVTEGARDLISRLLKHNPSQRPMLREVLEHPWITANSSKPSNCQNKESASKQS
Put plainly: Aurora A kinase assay (IMAP fluorescence polarization). To be noted: 10 μM ATP; rounded to 1 significant figure; read-out: Aur-A IC50. Format: biochemical. Put shortly:
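Compounds (eight 3-fold dilutions, 2.5% DMSO final) were preincubated 5 min at room temperature with Aurora A kinase in buffer with 1 mM DTT. Reaction with 100 nM fluorescein-PKAtide and 10 μM ATP ran 45 min at room temperature, then was stopped with IMAP binding reagent; fluorescence polarization was read after 30 min.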

A value given as a limit tells only on which side of the number the result lay.

T1 sequence (Q96GD4 whole entry): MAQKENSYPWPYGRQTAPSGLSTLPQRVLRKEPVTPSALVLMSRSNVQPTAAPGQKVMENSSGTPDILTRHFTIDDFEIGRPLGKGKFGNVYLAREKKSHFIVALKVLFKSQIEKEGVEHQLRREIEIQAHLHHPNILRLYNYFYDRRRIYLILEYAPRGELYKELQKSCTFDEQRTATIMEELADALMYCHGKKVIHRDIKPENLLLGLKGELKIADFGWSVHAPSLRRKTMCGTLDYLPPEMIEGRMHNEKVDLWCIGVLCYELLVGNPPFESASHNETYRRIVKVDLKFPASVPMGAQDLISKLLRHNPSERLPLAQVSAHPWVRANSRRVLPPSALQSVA
T2 sequence (P35968 20-1356): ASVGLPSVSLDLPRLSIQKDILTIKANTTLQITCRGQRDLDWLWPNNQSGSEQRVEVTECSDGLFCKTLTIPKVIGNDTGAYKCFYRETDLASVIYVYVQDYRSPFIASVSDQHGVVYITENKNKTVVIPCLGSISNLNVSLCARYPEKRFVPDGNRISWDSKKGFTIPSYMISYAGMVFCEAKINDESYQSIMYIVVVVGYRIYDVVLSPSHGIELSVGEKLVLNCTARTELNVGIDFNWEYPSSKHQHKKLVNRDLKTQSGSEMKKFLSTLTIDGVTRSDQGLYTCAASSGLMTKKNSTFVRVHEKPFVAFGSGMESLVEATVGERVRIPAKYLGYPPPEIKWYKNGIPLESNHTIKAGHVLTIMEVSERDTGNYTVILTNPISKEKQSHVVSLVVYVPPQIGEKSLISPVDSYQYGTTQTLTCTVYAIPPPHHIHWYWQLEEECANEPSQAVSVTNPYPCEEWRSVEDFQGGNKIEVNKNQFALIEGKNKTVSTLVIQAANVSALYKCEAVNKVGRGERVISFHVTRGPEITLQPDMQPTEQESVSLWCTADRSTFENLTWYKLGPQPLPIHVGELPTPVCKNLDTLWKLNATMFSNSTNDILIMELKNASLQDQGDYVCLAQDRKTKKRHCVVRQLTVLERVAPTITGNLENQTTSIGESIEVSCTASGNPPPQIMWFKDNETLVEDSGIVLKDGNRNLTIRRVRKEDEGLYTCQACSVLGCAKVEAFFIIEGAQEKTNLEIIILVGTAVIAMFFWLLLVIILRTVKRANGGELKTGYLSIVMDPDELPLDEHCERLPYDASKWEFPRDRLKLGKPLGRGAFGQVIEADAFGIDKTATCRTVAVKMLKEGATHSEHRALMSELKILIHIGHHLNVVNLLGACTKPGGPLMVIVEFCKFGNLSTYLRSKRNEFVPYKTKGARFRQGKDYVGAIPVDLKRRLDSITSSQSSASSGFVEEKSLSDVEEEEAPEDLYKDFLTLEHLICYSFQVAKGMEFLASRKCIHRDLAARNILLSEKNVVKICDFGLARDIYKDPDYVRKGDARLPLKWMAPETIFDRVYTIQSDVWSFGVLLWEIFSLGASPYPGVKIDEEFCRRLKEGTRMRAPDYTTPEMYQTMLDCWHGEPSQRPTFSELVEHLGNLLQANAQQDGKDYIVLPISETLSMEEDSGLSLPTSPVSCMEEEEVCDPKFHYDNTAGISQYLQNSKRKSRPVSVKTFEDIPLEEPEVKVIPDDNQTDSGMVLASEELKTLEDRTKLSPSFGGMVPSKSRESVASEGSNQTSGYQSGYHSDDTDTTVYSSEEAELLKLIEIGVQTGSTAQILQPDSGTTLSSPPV

On to `NC(=O)C(=C1Nc2ccccc2S1)c1ncc(C(=O)O)c(C(F)(F)F)n1` (single isomer, unassigned) [Compound 5A, 2-[benzothiazol-2(3H)-ylidene]-2-(5-carboxy-4-trifluoromethylpyrimidin-2-yl)acetamide], for which the IC50 is greater than 10000 nM in experiment [1]; 10000 nM in experiment [2]; 8 nM at Aurora B kinase; 20 nM on VEGFR2 kinase; 3000 nM in the experiment on p-H3 in HCT116 cells; 20 nM on Aurora A kinase.
Regarding `CC(C)(C)c1cc(C(F)(F)F)nc(C(C(N)=O)=C2Nc3ccccc3S2)n1` (single isomer, unassigned) [Compound 7A, 2-[benzothiazol-2(3H)-ylidene]-2-[4-tert-butyl-6-(trifluoromethyl)pyrimidin-2-yl]acetamide], the IC50 was 80 nM in experiment [1]; 6000 nM in experiment [2]; 20 nM on Aurora B kinase; 30 nM against VEGFR2 kinase; greater than 5000 nM in the experiment on p-H3 in HCT116 cells; 7 nM at Aurora A kinase.
With `NC(=O)C(=C1Nc2ccc(N)cc2S1)c1nccc(C(F)(F)F)n1` (single isomer, unassigned) [Compound 32A, 2-[6-aminobenzothiazol-2(3H)-ylidene]-2-(4-trifluoromethylpyrimidin-2-yl)acetamide], the IC50 was found to be 3000 nM in experiment [1]; 5000 nM in experiment [2]; 10 nM at Aurora B kinase; 40 nM at VEGFR2 kinase; 400 nM in the experiment on p-H3 in HCT116 cells; 10 nM at Aurora A kinase.
In the case of `COc1cc(C(F)(F)F)nc(/C(C(N)=O)=C2/Nc3ccccc3S2)n1` [Compound 6A], the IC50 turned out to be 2000 nM in experiment [1]; 4000 nM in experiment [2]; 10 nM on Aurora B kinase; 200 nM against VEGFR2 kinase; 2000 nM in the experiment on p-H3 in HCT116 cells; 20 nM on Aurora A kinase.
In the case of `Cc1cc(C(F)(F)F)nc(/C(C(N)=O)=C2/Nc3ccccc3S2)n1` [Compound 8A], the IC50 in experiment [1] was found to be 200 nM; in experiment [2], 2000 nM; on Aurora B kinase it was 8 nM; at VEGFR2 kinase, 60 nM; in the experiment with p-H3 in HCT116 cells, 1000 nM; at Aurora A kinase it was 10 nM.
Turning to `NC(=O)/C(=C1\Nc2ccccc2S1)c1nc(C(F)(F)F)cc(C(F)(F)F)n1` [Compound 9A], the IC50 in experiment [1] was greater than 20000 nM; in experiment [2], greater than 20000 nM; at Aurora B kinase, 7 nM; against VEGFR2 kinase, 60 nM; in the experiment on p-H3 in HCT116 cells, greater than 5000 nM; on Aurora A kinase, 10 nM.
Regarding `NC(=O)/C(=C1\Nc2ccccc2S1)c1nc(-c2cccnc2)cc(C(F)(F)F)n1` [Compound 10A], the IC50 was 2000 nM in experiment [1]; 1000 nM in experiment [2]; 10 nM at Aurora B kinase; 40 nM against VEGFR2 kinase; 5000 nM in the experiment with p-H3 in HCT116 cells; 10 nM on Aurora A kinase.
`NC(=O)/C(=C1\Nc2ccccc2S1)c1nc(-c2ccccn2)cc(C(F)(F)F)n1` [Compound 11A]: the IC50 was 3000 nM in experiment [1]; 4000 nM in experiment [2]; 10 nM on Aurora B kinase; greater than 5000 nM in the experiment with p-H3 in HCT116 cells; 40 nM at Aurora A kinase.
`NC(=O)C(=C1Nc2ccccc2N1)c1nc(N)cc(C(F)(F)F)n1` [Compound 12A]: the half-maximal inhibitory concentration (IC50) in experiment [1] worked out at 200 nM; in experiment [2], 400 nM; on Aurora B kinase, 6 nM; at VEGFR2 kinase it was 40 nM; in the experiment with p-H3 in HCT116 cells, 100 nM; at Aurora A kinase, 7 nM.
For `NC(=O)/C(=C1\Nc2ccccc2S1)c1nc(N)cc(C(F)(F)F)n1` [Compound 13A], the IC50 is 1000 nM in experiment [1]; 700 nM in experiment [2]; 3 nM at Aurora B kinase; 800 nM with p-H3 in HCT116 cells; 10 nM on Aurora A kinase.
Turning to `COc1ccnc(C(C(N)=O)=C2Nc3ccccc3N2)n1` [Compound 17A], the IC50 in experiment [1] amounted to 5000 nM; in experiment [2] it was 5000 nM; on Aurora B kinase, 30 nM; at VEGFR2 kinase, 1 nM; in the experiment on p-H3 in HCT116 cells, 600 nM; on Aurora A kinase, 300 nM.
Consider `NC(=O)/C(=C1\Nc2ccccc2S1)c1nccc(-c2ccccc2)n1` [Compound 20A], for which the concentration for half-maximal inhibition (IC50) in experiment [1] was 600 nM; in experiment [2], 8000 nM; at Aurora B kinase, 20 nM; on VEGFR2 kinase, 200 nM; with p-H3 in HCT116 cells, greater than 5000 nM; on Aurora A kinase, 90 nM.
On to `CCN(CCO)C(=O)c1ccc2c(c1)S/C(=C(/C(N)=O)c1nccc(C(F)(F)F)n1)N2` [Compound 31A], for which the concentration for half-maximal inhibition (IC50) in experiment [1] was 1000 nM; in experiment [2], 200 nM; on Aurora B kinase, 9 nM; against VEGFR2 kinase, 3 nM; in the experiment with p-H3 in HCT116 cells it was 100 nM; at Aurora A kinase, 4 nM.
Regarding `NC(=O)/C(=C1\Nc2ccc(NC(=O)C3CC3)cc2N1)c1nccc(C(F)(F)F)n1` [Compound 33A], the IC50 in experiment [1] is 300 nM; in experiment [2] it was 300 nM; on Aurora B kinase it was 10 nM; on VEGFR2 kinase, 9 nM; in the experiment with p-H3 in HCT116 cells, 500 nM; on Aurora A kinase it was 2 nM.
Consider `NC(=O)/C(=C1\Nc2ccc(NC(=O)C3(N)CC3)cc2N1)c1nccc(C(F)(F)F)n1` [Compound 34A], for which the half-inhibitory concentration (IC50) in experiment [1] is 200 nM; in experiment [2], 600 nM; on Aurora B kinase it was 6 nM; against VEGFR2 kinase, 10 nM; with p-H3 in HCT116 cells, 400 nM; at Aurora A kinase, 5 nM.
Consider `NC(=O)/C(=C1\Nc2cc(F)c(Cl)cc2N1)c1nccc(C(F)(F)F)n1` [Compound 37A], for which the IC50 in experiment [1] is 4000 nM; in experiment [2], 2000 nM; at Aurora B kinase, 20 nM; at VEGFR2 kinase, 400 nM; in the experiment on p-H3 in HCT116 cells, 500 nM; on Aurora A kinase, 30 nM.
Consider `NC(=O)/C(=C1\Nc2ccc(C(=O)NCCCn3ccnc3)cc2S1)c1nccc(C(F)(F)F)n1` [Compound 46A], for which the IC50 amounted to 200 nM in experiment [1]; 400 nM in experiment [2]; 10 nM at Aurora B kinase; 40 nM at VEGFR2 kinase; 200 nM in the experiment on p-H3 in HCT116 cells; 6 nM on Aurora A kinase.
As to `CCN(CCCn1ccnc1)C(=O)c1ccc2c(c1)S/C(=C(/C(N)=O)c1nccc(C(F)(F)F)n1)N2` [Compound 49A], the IC50 in experiment [1] was found to be 1000 nM; in experiment [2], 400 nM; at Aurora B kinase it was 5 nM; with p-H3 in HCT116 cells, 100 nM; at Aurora A kinase it was 3 nM.
As to `Cn1ccnc1CCc1ccc2c(c1)S/C(=C(/C(N)=O)c1nccc(C(F)(F)F)n1)N2` [Compound 97A], the IC50 is 1000 nM in experiment [1]; 600 nM in experiment [2]; 7 nM at Aurora B kinase; 100 nM with p-H3 in HCT116 cells; 20 nM on Aurora A kinase.
The corresponding values for `CCN(C(=O)CN1CCCCC1)c1ccc2c(c1)N/C(=C(/C(N)=O)c1nccc(C(F)(F)F)n1)N2` [Compound 146A] are 800 nM, 400 nM, 5 nM, 200 nM and 20 nM.
